Data as given in patent US7943603B2, “Medical uses of a selective estrogen receptor modulator in combination with sex steroid precursors” (Endorecherche, Inc., priority 1998, dated 2011).
“Also recorded” adds a separate entry of the source.

Assays:
rat [1] = assay: Serum triglyceride and cholesterol levels after 9-month treatment; type: in vivo; settings: DHEA 10 mg percutaneously, EM-800 75 μg orally, once daily, alone or in combination, 9 months
Text: (§1) The animals were randomly divided into groups each containing 20 rats with the exception of 40 animals in the control group. […] Treatment was initiated 3 days before the oral administration of DMBA. EM-800 was synthesized in the Medicinal Chemistry Division of our laboratory while DHEA was purchased from Steraloids Inc., Wilton, N.H.
(§2) Twenty-four-hour urinary samples were collected at the end of the experiment from the first 9 rats of each group following transfer in metabolic cages (Allentown Caging Equipment Co., Allentown, N.J.). Two urinary samples were collected and analyzed on different days for each animal in order to minimize the influence of daily variation. Therefore, each value shown represents the mean of the two measurements performed on two different days. 0.5 ml of toluene was added into the urine collecting tubes to prevent urine evaporation and bacterial growth and the urinary volume was recorded. Trunk blood was collected at sacrifice and was allowed to clot at 4° C. overnight before centrifugation at 3000 rpm for 30 min.
(§3) Fresh samples were used for the assay of urinary creatinine, calcium, and phosphorus as well as serum total alkaline phosphatase (tALP) activity, cholesterol and triglycerides. These biochemical parameters were measured automatically with a Monarch 2000 Chemistry System (Instrumentation Laboratory Co. Lexington, Mass.) under Good Laboratory Practice conditions. Urinary hydroxyproline was measured as described (Podenphant et al., Clinica Chimica Acta 142: 145-148, 1984).

ovariectomized rats [2] = assay: Bone histomorphometry of tibia after 12-month treatment of ovariectomized rats; type: in vivo, rat; settings: 12 months, histology
Protocol: Intact animals are added as additional controls. Data are presented as mean±SEM **p<0.01 versus OVX Control.
Modified trichrome Masson-Goldner, magn. ×80. T: Trabeculae, GP: Growth Plate.

[3] = system: ovariectomized (OVX) nude mice supplemented with estrone; assay: Uterine, vaginal and body weight in OVX nude mice bearing ZR-75-1 xenografts; settings: OVX+E1 nude mice
Protocol: A posteriori pairwise comparisons were performed using Fisher's test for least significant difference. Main effects and the interaction of treatments on body weight and organ weight were analyzed using a standard two-way ANOVA with interactions. All ANOVAs were performed using SAS program (SAS Institute, Cary, N.C., USA). Significance of differences were declared using a 2-tailed test with an overall level of 5%.

[4] = aged Sprague-Dawley rats; reduced from 600 g, food intake unaffected; cited from earlier work
[5] = Example 5 table: serum, urinary and GnRH mRNA parameters in OVX groups; type: in vivo; settings: doses not given; for LH: LD: Limit of Detection: 0.01 ng/ml
[6] = system: DMBA-induced mammary carcinoma; assay: Development of DMBA-induced mammary carcinoma in the rat; type: in vivo; settings: 279 days after DMBA
Protocol: (§4) Female Sprague-Dawley rats [Crl:CD(SD)Br] were obtained at 44-46 days of age from Charles River Canada Inc. (St. Constant, Quebec) and housed 2 per cage in a light (12 h light/day; lights on at 07:15 h)-and temperature (22±2° C.)-controlled environment. Animals received Purina rodent chow and tap water ad libitum. The animal studies were conducted in a Canadian Council on Animal Care (CCAC)-approved facility in agreement with the CCAC Guide for Care and Use of Experimental Animals.
Mammary carcinomas were induced by a single intragastric administration of 20 mg of DMBA (Sigma Chemical Co., St. Louis, Mo.) in 1 ml of corn oil at 50-52 days of age. Two months later, tumor measurement was performed biweekly. The two largest perpendicular diameters of each tumor were recorded with calipers to estimate tumor size as described (Asselin et al., Endocrinology 101: 666-671, 1977). Tumor site, size and number were recorded.
as §1
Many of the control animals and some of EM-800- or DHEA-treated animals were sacrificed by cervical dislocation under isoflurane-induced anesthesia 6 months after DMBA administration because of the too large size of tumors. The values of tumor size and number of these rats at sacrifice, together with those measured at later time intervals from the surviving animals, were used for the later analysis of the incidence of tumors, average tumor number per tumor-bearing rat and average tumor size per tumor-bearing animal. […] Rats were sacrificed 279 days after DMBA administration.
Statistical significance was measured according to the multiple range test of Duncan-Kramer (Biometrics 12: 307-310, 1956). Analysis of the incidence of development of mammary tumors was performed using the Fisher's exact test (Conover, Practical nonparametric statistics, 2nd Edition 153-170, 1980). The data are presented as means±S.E.M.

rat [7] = assay: Urine and serum biochemical parameters of bone metabolism; type: in vivo; settings: DHEA 10 mg percutaneously, EM-800 75 μg orally, once daily, alone or in combination, 9 months
Text: as §1, §2, §3

[8] = system: human ZR-75-1 breast tumor xenografts; assay: Growth of human ZR-75-1 breast tumor xenografts in OVX nude mice supplemented with estrone; settings: 9.5 months
female rat = assay: Bone mineral density (DEXA) after 9-month treatment; type: in vivo; settings: DHEA 10 mg percutaneously, EM-800 75 μg orally, once daily, alone or in combination, 9 months
Protocol: as §4, §1
Rats were anesthetized with an i.p. injection of ketamine hydrochloride and diazepam at doses of 50 and 4 mg/kg B.W., respectively. The whole skeleton and the right femur were scanned using dual energy X-ray absorptiometry (DEXA; QDR 2000-7.10C, Hologic, Waltham, Mass.) equipped with a Regional High Resolution software. The scan field sizes were 28.110×17.805 cm and 5.0×1.902 cm, the resolutions were 0.1511×0.0761 cm and 0.0254×0.0127 cm, while the scan speeds were 0.3608 and 0.0956 mm/sec for total skeleton and femur, respectively. Both bone mineral content (BMC) and bone mineral density (BMD) of total skeleton, lumbar spine, and femur were measured on the scan images of total skeleton and femur.

ovariectomized rats [9] = settings: treatment with 5-diol
estrogen receptor = target: T1, estrogen receptor (Homo sapiens, UniProt P03372); assay: Testing of antiestrogens for function as SERM
T1 sequence (P03372 1-595): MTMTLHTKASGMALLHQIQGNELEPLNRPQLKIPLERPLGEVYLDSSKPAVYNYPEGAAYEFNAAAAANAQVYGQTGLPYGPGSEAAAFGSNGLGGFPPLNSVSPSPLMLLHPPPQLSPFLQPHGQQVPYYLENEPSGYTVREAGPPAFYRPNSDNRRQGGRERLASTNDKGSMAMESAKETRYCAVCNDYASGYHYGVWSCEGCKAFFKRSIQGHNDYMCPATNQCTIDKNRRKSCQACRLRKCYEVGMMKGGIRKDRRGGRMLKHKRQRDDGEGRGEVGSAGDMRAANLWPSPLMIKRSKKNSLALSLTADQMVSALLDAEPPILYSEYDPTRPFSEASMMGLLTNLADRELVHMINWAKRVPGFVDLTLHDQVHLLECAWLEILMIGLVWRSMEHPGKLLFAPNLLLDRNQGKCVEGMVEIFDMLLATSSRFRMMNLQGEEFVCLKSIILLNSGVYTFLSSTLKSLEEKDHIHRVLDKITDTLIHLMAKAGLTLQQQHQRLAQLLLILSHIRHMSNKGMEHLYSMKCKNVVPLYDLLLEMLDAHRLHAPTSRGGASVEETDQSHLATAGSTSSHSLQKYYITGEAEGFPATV

Solid state stability = type: physicochemical
postmenopausal women = settings: cited from earlier work
[10] = DHEA 0.3 mg percutaneously, alone or with EM-800 15 μg, OVX+E1 0.5 μg nude mice
[11] = DHEA 1.0 mg percutaneously, alone or with EM-800 15 μg, OVX+E1 0.5 μg nude mice
[12] = DHEA 3.0 mg percutaneously, alone or with EM-800 15 μg, OVX+E1 0.5 μg nude mice
[13] = E1 0.5 μg s.c. daily alone, OVX nude mice

Compound: C[C@]12CC[C@H](O)CC1=CC[C@@H]1[C@@H]2CC[C@]2(C)C(=O)CC[C@@H]12 [DHEA, dehydroepiandrosterone]
- decrease of serum cholesterol levels (rat [1]): unaffected
- decrease of serum triglyceride levels (rat [1]): 60%
- effect on trabecular bone volume of proximal tibia metaphysis (FIG. 8) (ovariectomized rats [2]): significant increase in trabecular bone volume
- effect of addition of DHEA on estrone-stimulated vaginal weight ([3]; DHEA 0.3, 1.0 or 3.0 mg): no significant effect
- effect on body weight adjusted for tumor weight ([3]; 9.5 months): No significant effect
- body weight [4]: 550 g
- GnRH mRNA levels silver grains per cell [5]: 34.5 ± 0.7 silver grains per cell
- Triglycerides [5]: 0.8 ± 0.1 mmol/L
- Urinary OH-proline/creatinin [5]: 7.3 ± 1.0 μmol/mmol
- LH [5]: 0.02 ± 0.01 ng/mL
- incidence of DMBA-induced mammary carcinoma (animals with palpable tumors) ([6]; DHEA 10 mg percutaneously, EM-800 75 μg orally, once daily, control 95%): 57%
- average tumor number per tumor-bearing animal ([6]; end of experiment, DHEA 10 mg, EM-800 75 μg daily, control 4.7±0.5): 3.4±0.7 tumors/animal
- average tumor area per tumor-bearing animal ([6]; end of experiment, DHEA 10 mg, EM-800 75 μg daily, control 12.8±1.3): 10.2±2.1 cm^2
- decrease of daily urinary calcium excretion versus control (rat [7]): no effect
- decrease of daily urinary phosphorus excretion versus control (rat [7]): no effect
- decrease of urinary hydroxyproline/creatinine ratio versus control (rat [7]): no effect; also recorded: did not affect; also recorded: did not show any effect
- Complete response, (%) [8, 10]: 28.6%
- Complete response, number [8, 10]: 4
- Partial response, (%) [8, 10]: 0 (0) %
- Partial response, number [8, 10]: 0 (0)
- Progression, (%) [8, 10]: 50.0%
- Progression, number [8, 10]: 7
- Stable response, (%) [8, 10]: 21.4%
- Stable response, number [8, 10]: 3
- Complete response, (%) [8, 11]: 26.7%
- Complete response, number [8, 11]: 4
- Partial response, (%) [8, 11]: 0 (0) %
- Partial response, number [8, 11]: 0 (0)
- Progression, (%) [8, 11]: 53.3%
- Progression, number [8, 11]: 8
- Stable response, (%) [8, 11]: 20.0%
- Stable response, number [8, 11]: 3
- Complete response, (%) [8, 12]: 20.0%
- Complete response, number [8, 12]: 3
- Partial response, (%) [8, 12]: 0 (0) %
- Partial response, number [8, 12]: 0 (0)
- Progression, (%) [8, 12]: 66.7%
- Progression, number [8, 12]: 10
- Stable response, (%) [8, 12]: 13.3%
- Stable response, number [8, 12]: 2
- BMD FEMUR (female rat): 0.3408 ± 0.0038 g/cm2
- BMD LUMBAR SPINE (female rat): 0.2163 ± 0.0049 g/cm2
- BMD TOTAL SKELETON (female rat): 0.1465 ± 0.0010 g/cm2
- increase in BMD of femur versus control (female rat): 8.2%
- increase in BMD of lumbar spine versus control (female rat): 10.6%
- increase in BMD of total skeleton versus control (female rat): 6.9%

Compound: C[C@]12CC[C@@H]3c4ccc(O)cc4CC[C@H]3[C@@H]1CCC2=O [estrone]
- Complete response, (%) [8, 13]: 0%
- Complete response, number [8, 13]: 0 (0)
- Partial response, (%) [8, 13]: 0 (0) %
- Partial response, number [8, 13]: 0 (0)
- Progression, number [8, 13]: 14
- Stable response, (%) [8, 13]: 12.5%
- Stable response, number [8, 13]: 2
- Complete response, (%) ([8]; E1 0.5 μg s.c. daily alone, OVX nude mice, listed as E1): 0 (0) %

Compound: C[C@]12CC[C@H]3[C@@H](CC=C4C[C@@H](O)CC[C@@]43C)[C@@H]1CC[C@@H]2O [5-diol, androst-5-ene-3β,17β-diol]
- serum alkaline phosphatase activity (ovariectomized rats [9]): marked stimulation

Compound: C[C@]12CCC(=O)C[C@@H]1CC[C@@H]1[C@@H]2CC[C@]2(C)[C@@H](O)CC[C@@H]12 [DHT]
- Cholesterol [5]: 2.44 ± 0.16 mmol/L
- GnRH mRNA levels silver grains per cell [5]: 38.8 ± 0.7 silver grains per cell
- Serum Alkaline phosphatase [5]: 56 ± 5 IU/L
- Triglycerides [5]: 0.9 ± 0.1 mmol/L
- Urinary OH-proline/creatinin [5]: 7.8 ± 0.7 μmol/mmol
- LH [5]: 1.55 ± 0.27 ng/mL

Compound: CC/C(=C(/c1ccc(OCCN(C)C)cc1)c1cccc(O)c1)c1ccccc1 [Droloxifene]
- function as SERM (estrogen receptor): found to function as SERMs

Compound: CC1=C(c2ccc(O)cc2)[C@H](c2ccc(OCCN3CCCCC3)cc2)Oc2cc(O)ccc21.Cl [EM-01538, (S)-(+)-7-hydroxy-3-(4′-hydroxyphenyl)-4-methyl-2-(4″-(2′″-piperidinoethoxy)phenyl)-2H-1-benzopyran hydrochloride]
- solid state stability (Solid state stability): good solid state stability

Compound: C[C@]12CC[C@H]3[C@@H](CCC4=CC(=O)CC[C@@H]43)[C@@H]1CC[C@@H]2O [nandrolone]
- patients with androgenic side-effects (postmenopausal women): 50%

Compound: C[C@]12CC[C@@H]3c4ccc(O)cc4C[C@@H](CCCCCCCCC[S+]([O-])CCCC(F)(F)C(F)(F)F)[C@H]3[C@@H]1CC[C@@H]2O (some centres unmarked) [ICI 182,780]
- function as SERM (estrogen receptor): found not to function as SERMs

Compound: CC(=O)O[C@]1(C(C)=O)CC[C@H]2[C@@H]3C[C@H](C)C4=CC(=O)CC[C@]4(C)[C@H]3CC[C@@]21C [MPA]
- Cholesterol [5]: 2.55 ± 0.14 mmol/L
- GnRH mRNA levels silver grains per cell [5]: 35.5 ± 0.7 silver grains per cell
- Serum Alkaline phosphatase [5]: 57 ± 4 IU/L
- Triglycerides [5]: 1.3 ± 0.1 mmol/L
- Urinary OH-proline/creatinin [5]: 11.7 ± 1.2 μmol/mmol
- LH [5]: 2.51 ± 0.20 ng/mL

Compound: C[C@]12CC[C@@H]3c4ccc(O)cc4CC[C@H]3[C@@H]1CC[C@@H]2O [E2, 17β-estradiol]
- Cholesterol [5]: 2.02 ± 0.15 mmol/L
- GnRH mRNA levels silver grains per cell [5]: 40.4 ± 0.8 silver grains per cell
- Serum Alkaline phosphatase [5]: 41 ± 5 IU/L
- Triglycerides [5]: 0.8 ± 0.1 mmol/L
- Urinary OH-proline/creatinin [5]: 9.2 ± 0.9 μmol/mmol
- LH [5]: 2.37 ± 0.45 ng/mL
